Assay results: patent US20040037837A1 (priority 2000, published 2004)

Assays:
[1] = tested on: autologous monocyte-derived macrophages infected with M. bovis BCG, M. tuberculosis or rVV expressing Ag85A; assay type: cell-based, human; details: label = peptide used to generate the STCL (or pulsed control peptide)
[2] = tested on: Uncultured PBMCs from HLA-A2 donors; assay type: cell-based, human
[3] = tested on: HLA-A2 transgenic C57B1/6 mice; assay type: in vivo; details: subcutaneous peptides in IFA
[4] = tested on: THP-1 cells pulsed with peptide; assay: 51Cr release cytotoxicity assay of peptide specific CD8+ T cells against peptide pulsed THP-1 cells; assay type: cell-based, human; details: 50:1 E:T ratio; label = peptide pulsed on targets; STCL after 2 weeks of stimulation

Sequence	recognition and lysis of M. bovis BCG, M. tuberculosis and rVV85A infected macrophages by peptide specific CTLs [1]	mean number of IFN-γ sfc's enumerated from 5×10^5 PBMCs [2]	peptide specific IFNγ producing T cells in the spleens ([3]; 7 days post second boost)	specific lysis of peptide pulsed THP-1 cells by P48-56 stimulated CD8^+ T cells [4] [%]	specific lysis of peptide pulsed THP-1 cells by P242-250 reactive CD8^+ T cells [4]	recognition of peptide with feeder cells from wild type C57B1/6 mice ([3]; 7 days post first boost, lymph node)	IFNγ response to peptide in the lymph node ([3]; 7 days post first boost, autologous feeders)
GLPVEYLQV (listed as Mycobacterium tuberculosis) [P48-56]	able to recognise and lyse	27	resulted in a P48-56 response	76	no significant lysis		
KLIANNTRV (listed as Mycobacterium tuberculosis) [P242-250]	able to recognise and lyse	22			79%	not recognised	a response to P242-250 was seen
